This is an account of results in patent US20170119033A1, “METHOD OF IMPROVING STABILITY OF SWEET ENHANCER AND COMPOSITION CONTAINING STABILIZED SWEET ENHANCER” (Senomyx, Inc., priority 2016, published 2017).

Each structure is given as a SMILES string. Entries after “also recorded” stand apart in the source; their conditions may differ.

The data set can be described thus: Photostability test in Q-Sun Xenon Test Chamber (accelerated photodegradation), LC/MSD quantitation. It is filed as physicochemical. Particulars: for percent Compound 2 remaining: 5 ppm; for effect of sorbate on photostability: 250 ppm potassium sorbate versus no photostabilizer; for effect of sorbate on photostability / rate of degradation, trend with pH: 10 ppm Compound 1 or 5 ppm Compound 2; for rate of degradation, trend with pH: no photostabilizer, pH 2.8, 4.0, 5.0, 7.1; for percent Compound 1 remaining: 10 ppm. How it is done:
Aqueous buffer solution at pH 7.1 contains 50 mM potassium dihydogen phosphate and ˜32 mM sodium hydroxide (solutions of 1.0 M hydrochloric acid and 1.0 M sodium hydroxide are used to adjust pH). Aqueous buffer solution at pH 4.0 contains 50 mM citric acid monosodium salt and ˜7.4 mM sodium hydroxide (solutions of 1.0 M hydrochloric acid and 1.0 M sodium hydroxide are used to adjust pH). Aqueous buffer solution at pH 2.8 contains 50 mM citric acid and ˜16 mM sodium hydroxide (solutions of 1.0 M hydrochloric acid and 1.0 M sodium hydroxide are used to adjust pH). Aqueous buffer solution at pH 5.0 contains 50 mM acetic acid and ˜32 mM sodium hydroxide (solutions of 1.0 M hydrochloric acid and 1.0 M sodium hydroxide are used to adjust pH). All the buffers also contained 30 ppm ethylenediaminetetraacetic acid (EDTA).
The stock solutions of the test compounds at 10 mM for compound I and at 2000 ppm for compound II are made by dissolving the compounds in ethanol and water with 0.2% sodium bicarbonate, respectively. The solutions of the stabilizers are made by dissolving the materials in the aqueous buffers. The stock solutions are then diluted to 5 or 10 ppm with the stabilizer solutions to prepare the test solution and 10-mL aliquots of the solutions are transferred to 20-mL clear glass vial for testing.
Accelerated photodegradation was studied using a Q-Sun Xenon Test Chamber (Q-Lab Model No. Xe-1-SC) at an irradiance setting of 350 mW/m^2 at 340 nm and temperature of 25 degrees Celsius. To put this in perspective, 24 hours of constant Q-Sun irradiation at these settings is approximately equivalent to 12.4 days of direct sunlight in the southwestern United States. At 0, 1, 2, 4, 6 and 24 hours from the beginning of the radiation, a 0.4-mL aliquot from each vial is pippeted out to a 1-mL glass insert for analysis.
The samples are analyzed using an Agilent 1290 LC/MSD equipped with a diode-array detector (DAD). The peak areas from the MSD chromatograms are used for quantitation, and the photostability is shown by plotting the percentages of the test compound which remains intact at all time points. The peak areas from the DAD chromatograms are used for quantitation for stabilizers with concentration at […] or higher. The instrument conditions are listed below. • Column: Water Acquity HSS T3 C18 1.8 μm, 2.1×30 mm • Column Temperature: 30° C. • Auto-sampler Temperature: Room temperature • Mobile Phase A: 0.1% formic acid in water • Mobile Phase B: 0.1% formic acid in acetonitrile • Gradient: 0-1 min, linear gradient 5-50% B; 1.0-1.2 min, linear gradient 50-100% B; 1.2-2.0 min, 100% B; flow rate is 1.2 mL/min, and Post time is 0.5 min. • Injection volume: 10 uL • MSD ion source: APCI • MSD Signal settings: Positive, selected ion monitoring (SIM) at the mass of the expected molecular ions. • UV detection wavelength: 230 nm. • MSD detection start time: 0.65 min
A Q-Sun Xenon Test Chamber (Q-Lab Model No. Xe-1-SC), which reproduces the entire spectrum of natural sunlight, was used to study the photostability of Compound 1 in various mediums (with or without photostabilizers). The equivalent sunlight exposure time for 24 hours in the Q-Sun at a constant temperature of 25° C. and irradiance of 450 mW/m^2 @ 340 nm is estimated to be equivalent to approximately 15.9 days of direct sunlight in the Southwestern United States.
A Q-Sun Xenon Test Chamber (Q-Lab Model No. Xe-1-SC), which reproduces the entire spectrum of natural sunlight, was used to study the photostability of Compound 2 in various mediums (with or without photostabilizers). The equivalent sunlight exposure time for 24 hours in the Q-Sun at a constant temperature of 25° C. and irradiance of 450 mW/m^2 @ 340 nm is estimated to be equivalent to approximately 15.9 days of direct sunlight in the Southwestern United States.

The mark [1] stands for this setting: 250 ppm potassium sorbate, pH 4.0, after 4 hours exposure.
The mark [2] stands for this setting: absence of photostabilizer, pH 7.1, after 4 hours exposure.
Where [3] appears, read: absence of sorbate, pH 2.8, after 4 hours exposure.
Setting [4] is: absence of sorbate, pH 4.0, after 4 hours exposure.

For `CC(C)CC(=O)N1CCC[C@H](COc2cccc3c2C(N)=NS(=O)(=O)N3)C1` [Compound 2, (S)-1-(3-(((4-amino-2,2-dioxido-1H-benzo[c][1,2,6]thiadiazin-5-yl)oxy)methyl)piperidin-1-yl)-3-methylbutan-1-one], the “effect of sorbate on photostability” value is given as “remarkably improved stability to photo-degradation; also recorded: significantly enhances the photostability” and the “rate of degradation, trend with pH” value is “decreases with decreasing pH”. The “percentage of Compound 2 remaining” value (5 ppm Compound 2, no photostabilizer, all pH values (2.8, 4.0, 5.0, 7.1), after 4 hours light exposure, 25° C.) is given as “less than 20%”. Moreover, under setting [1], the “percent Compound 2 remaining” value is “about 42%”. For the setting “250 ppm potassium sorbate, pH 5.0, after 4 hours exposure”, the “percent Compound 2 remaining” value is “about 15%”. In addition, under setting [2], the “percent Compound 2 remaining” value is “no compound remained”. In addition, under setting [3], the “percent Compound 2 remaining” value is listed as “about 15%”. The “percent Compound 2 remaining” value under setting [4] is on record as “about 5%”.
Turning to `CCCNC(=O)C(C)(C)COc1cccc2c1C(N)=NS(=O)(=O)N2` [Compound 1, 3-(4-Amino-2,2-dioxide-1H-benzo[c][1,2,6]thiadiazin-5-yloxy)-2′,2′-dimethyl-N-propylpropanamide], the “effect of sorbate on photostability” value is reported as “remarkably improved stability to photo-degradation; also recorded: significantly enhances the photostability” and the “rate of degradation, trend with pH” value is “decreases with decreasing pH”. The “percentage of Compound 1 remaining” value (10 ppm Compound 1, no photostabilizer, all pH values (2.8, 4.0, 5.0, 7.1), after 4 hours light exposure, 25° C.) is recorded as “less than 20%”. The “percent Compound 1 remaining” value under setting [1] was “about 47%”. In addition, under setting [2], the “percent Compound 1 remaining” value is on record as “no compound remained”. Also, the “percent Compound 1 remaining” value under setting [3] is on record as “about 14%”. The “percent Compound 1 remaining” value under setting [4] is “about 10%”.
